This assay addresses c-kit WT (Homo sapiens (Human), UniProt P10721). As to the kind of experiment: Proliferation assay (CellTiter-Blue) on BaF3 Kit WT cell line. The following applies: BaF3 Kit WT cell line (murine Ba/F3 expressing Human Kit WT, with murine SCF), 48 hours. The assay is classed as cell-based. The protocol: Procedures of C-Kit WT Inhibition Assays:
Colorimetric cell proliferation and viability assay (reagent CellTiter-Blue purchased from Promega cat N°G8081) was performed on BaF3 Kit WT cell line.
A total of 2.10^4 cells/50 μl were seeded per well of a 96-wells plate. Treatment was initiated by addition of a 2× drug solution of ½ serial dilutions ranging from 0 to 10 μM. After incubating for 48 hours at 37° C., 10 μl of a ½ dilution of CellTiter-Blue reagent was added to each well and the plates were returned to the incubator for an additional 4 hours. The fluorescence intensity from the CellTiter-Blue reagent is proportional to the number of viable cells and data were recorded (544Ex/590Em) using a POLARstar OMEGA microplate reader (BMG LabteckSarl). A background control without cells was used as a blank. The positive control of the assay corresponds to the cell proliferation obtained in the absence of drug treatment (100% proliferation). Each sample was done in triplicate. The results were expressed as a percentage of the proliferation obtained in absence of treatment. All drugs were prepared as 20 mM stock solutions in DMSO and conserved at −80° C. Drug dilutions were made fresh in medium before each experiment. A DMSO control was included in each experiment.
The cell line expressing Human Kit WT was derived from the murine IL3-dependent Ba/F3 proB lymphoid cells. Ba/F3 Kit WT cells were maintained in RPMI medium containing 10% FCS and supplemented with 250 ng/ml of recombinant murine SCF.
For orientation: Resazurin is reduced to fluorescent resorufin, in cell work by metabolically active cells.
Chain of c-kit WT (P10721 26-976): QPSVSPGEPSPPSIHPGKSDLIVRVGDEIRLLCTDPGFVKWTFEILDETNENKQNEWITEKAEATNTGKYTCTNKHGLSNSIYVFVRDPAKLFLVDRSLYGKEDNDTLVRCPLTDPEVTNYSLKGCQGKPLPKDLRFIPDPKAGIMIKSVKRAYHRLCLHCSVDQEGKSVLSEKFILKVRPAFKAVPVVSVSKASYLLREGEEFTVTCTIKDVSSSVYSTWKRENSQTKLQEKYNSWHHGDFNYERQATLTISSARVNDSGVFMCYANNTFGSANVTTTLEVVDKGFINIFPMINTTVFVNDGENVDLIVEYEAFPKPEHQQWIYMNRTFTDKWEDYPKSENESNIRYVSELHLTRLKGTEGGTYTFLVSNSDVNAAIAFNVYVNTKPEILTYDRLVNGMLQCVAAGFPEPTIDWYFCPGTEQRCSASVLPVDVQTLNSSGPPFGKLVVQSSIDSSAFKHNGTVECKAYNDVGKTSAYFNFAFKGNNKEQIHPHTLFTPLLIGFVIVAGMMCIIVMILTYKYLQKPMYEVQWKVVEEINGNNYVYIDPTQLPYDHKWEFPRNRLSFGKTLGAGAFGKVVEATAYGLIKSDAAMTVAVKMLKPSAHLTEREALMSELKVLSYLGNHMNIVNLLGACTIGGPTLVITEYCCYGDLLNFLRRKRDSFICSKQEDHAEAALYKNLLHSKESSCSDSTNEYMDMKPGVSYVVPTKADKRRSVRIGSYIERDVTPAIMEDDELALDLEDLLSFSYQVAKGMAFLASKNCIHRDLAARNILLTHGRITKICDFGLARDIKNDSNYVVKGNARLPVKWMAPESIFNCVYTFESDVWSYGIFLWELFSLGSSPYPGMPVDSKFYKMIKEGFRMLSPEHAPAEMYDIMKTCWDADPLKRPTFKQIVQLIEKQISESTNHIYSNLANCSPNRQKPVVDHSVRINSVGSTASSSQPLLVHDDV
The compound `Cc1cc2nc(-c3ccccc3C)[nH]c2cc1Nc1nc(-c2cccnc2)cs1` [Compound 001, (6-Methyl-2-o-tolyl-3H-benzoimidazol-5-yl)-(4-pyridin-3-yl-thiazol-2-yl)-amine] showed an IC50 of 1000 to 10000 nM. The compound `COc1ccc(-c2nc3cc(C)c(Nc4nc(-c5cccnc5)cs4)cc3[nH]2)cc1` [Compound 002, [2-(4-Methoxy-phenyl)-6-methyl-3H-benzoimidazol-5-yl]-(4-pyridin-3-yl-thiazol-2-yl)-amine] showed an IC50 of 1000 to 10000 nM. For `Cc1cc2nc(-c3ccc(CN4CCN(C)CC4)cc3)[nH]c2cc1Nc1nc(-c2cccnc2)cs1` [Compound 003, {6-Methyl-2-[4-(4-methyl-piperazin-1-ylmethyl)-phenyl]-3H-benzoimidazol-5-yl}-(4-pyridin-3-yl-thiazol-2-yl)-amine], the IC50 was no more than 1000 nM. `Cc1ccc(-c2nc3cc(C)c(Nc4nc(-c5cccnc5)cs4)cc3[nH]2)cc1` [Compound 004, (6-Methyl-2-p-tolyl-3H-benzoimidazol-5-yl)-(4-pyridin-3-yl-thiazol-2-yl)-amine] had an IC50 of 1000 to 10000 nM. In turn, `Cc1cc2nc(-c3cccc(C(F)(F)F)c3)[nH]c2cc1Nc1nc(-c2cccnc2)cs1` [Compound 005, [6-Methyl-2-(3-trifluoromethyl-phenyl)-3H-benzoimidazol-5-yl]-(4-pyridin-3-yl-thiazol-2-yl)-amine] came in with an IC50 of no more than 1000 nM.

In the case of `Cc1cc2nc(-c3ccc(CN4CCN(C)CC4)cc3)[nH]c2cc1Nc1ncc(-c2cccnc2)o1` [Compound 006, {6-Methyl-2-[4-(4-methyl-piperazin-1-ylmethyl)-phenyl]-3H-benzoimidazol-5-yl}-(5-pyridin-3-yl-oxazol-2-yl)-amine], the half-inhibitory concentration (IC50) fell in the range of 1000 to 10000 nM. In turn, `Cc1cc2nc(-c3cccc(C(F)(F)F)c3)[nH]c2cc1Nc1ncc(-c2cccnc2)o1` [Compound 007, [6-Methyl-2-(3-trifluoromethyl-phenyl)-3H-benzoimidazol-5-yl]-(5-pyridin-3-yl-oxazol-2-yl)-amine] displayed an IC50 of 1000 to 10000 nM. The compound `Cc1cc2nc(-c3cccc(C(F)(F)F)c3)[nH]c2cc1Nc1nccc(-c2cccnc2)n1` [Compound 008] displayed an IC50 of no more than 1000 nM. Take `Cc1cc2nc(-c3ccc(CN4CCN(C)CC4)cc3)[nH]c2cc1Nc1nccc(-c2cccnc2)n1` [Compound 009, {6-Methyl-2-[4-(4-methyl-piperazin-1-ylmethyl)-phenyl]-3H-benzoimidazol-5-yl}-(4-pyridin-3-yl-pyrimidin-2-yl)-amine]: the IC50 was in the range of 1000 to 10000 nM. For `Cc1cc2nc(-c3cccc(C#N)c3)[nH]c2cc1Nc1nc(-c2cccnc2)cs1` [Compound 010, 3-[5-Methyl-6-(4-pyridin-3-yl-thiazol-2-ylamino)-1H-benzoimidazol-2-yl]-benzonitrile], the IC50 was no more than 1000 nM. For `Cc1cccc(-c2nc3cc(C)c(Nc4nc(-c5cccnc5)cs4)cc3[nH]2)c1` [Compound 011, (6-Methyl-2-m-tolyl-3H-benzoimidazol-5-yl)-(4-pyridin-3-yl-thiazol-2-yl)-amine], the IC50 was no more than 1000 nM. `Cc1cccc(-c2nc3cc(C)c(Nc4nccc(-c5cccnc5)n4)cc3[nH]2)c1` [Compound 012, (6-Methyl-2-m-tolyl-3H-benzoimidazol-5-yl)-(4-pyridin-3-yl-pyrimidin-2-yl)-amine] returned an IC50 of 1000 to 10000 nM.

For the compound `Cc1cc2nc(-c3cccc(C#N)c3)[nH]c2cc1Nc1nccc(-c2cccnc2)n1` [Compound 013, 3-[5-Methyl-6-(4-pyridin-3-yl-pyrimidin-2-ylamino)-1H-benzoimidazol-2-yl]-benzonitrile], the IC50 lay in the range of 1000 to 10000 nM. With `Cc1cc2nc(-c3cccnc3)[nH]c2cc1Nc1nccc(-c2cccnc2)n1` [Compound 014, (6-Methyl-2-pyridin-3-yl-3H-benzoimidazol-5-yl)-(4-pyridin-3-yl-pyrimidin-2-yl)-amine] the figure was 1000 to 10000 nM.

In general, IC50 refers to the concentration at which inhibition is half-maximal. A higher IC50 goes with weaker potency.

Values taken from patent US10202370B2, “Benzimidazole derivatives as selective proteine kinase inhibitors” (AB SCIENCE, priority 2013, dated 2019).
